According to patent publication US10689359B2, “Crystals of quinazoline derivative and preparation method therefor” (Xuanzhu Pharma Co., Ltd., priority 2015, dated 2020):
Like-named read-outs stand apart in the source and are kept apart here.

Experiments:
[1] = Evaluation on pharmacokinetics in SD rats, intragastric administration; format: in vivo; details: 5 mg/kg
Description: An amorphous form of a compound of Formula (I), the preparation method of which could be found in the particular Examples as disclosed in the international patent application (Publication No. WO 2012027960 A1).
Test animal: SD rats, male, weighed 190-250 g, 6 rats for each crystal form, purchased from Beijing Vital River Laboratory Animal Technology Co., Ltd.
Administration route: intragastric administration, at an administration dose of 5 mg/kg, and an administration volume of 10 mL/kg.
Blood collection: whole blood (about 100 μL) was collected from tail vein 10 min, 30 min, 1 h, 2 h, 4 h, 6 h, 8 h, and 24 h after administration, and added to K2EDTA-containing anticoagulation tubes. The whole blood sample was centrifuged for 6 min at 4° C., 8000 rpm in a high speed centrifuge, and plasma was separated. Plasma needed to be prepared within 30 min after blood collection, and stored at −80° C. in a refrigerator.
Plasma sample analysis: the plasma samples were analyzed by protein precipitation: to plasma (20 μL), an internal standard Gefitinib (200 μL, 50 ng/mL acetonitrile solution) was added; the resultant mixture was vortexed at 500 rpm for 5 min, and centrifuged at 4000 rpm for 20 min in a high speed centrifuge; to the supernatant (100 μL), water (100 μL) was added; the resultant mixture was mixed homogeneously under vortexing and analyzed by LC-MS/MS for blood concentration.
Calculation for PK parameters: PK parameters were calculated by using Pharsight Phoenix 6.2 software.

[2] = Comparison of stability between crystal forms and amorphous form, 60° C. uncovered, relevant substances by HPLC; format: physicochemical; details: for Change in total relevant substances (conclusion) / Increase of total relevant substances: 60° C. uncovered; for Change in total relevant substances (conclusion): 5 days and 10 days
Description: Instrument: High Performance Liquid Chromatographic Instrument (Agilent 1260 series) Chromatographic column: chromatographic column using octylsilane chemically bonded silica as filler (HC-C8, 4.6×250 mm, 5 μm) Column temperature: 30° C. Detection wavelength: 230 nm Mobile phase: Mobile phase consisting of 0.06 mol/L sodium dihydrogen phosphate/0.06 mol/L sodium perchlorate solution-acetonitrile, and reversed-phase gradient elution was employed. Flow rate: 1.0 mL/min Injection volume: 10 μL

[3] = Study on stability of Crystal form I, II and III (influencing factors; character, moisture content, relevant substances by HPLC, XRPD); format: physicochemical; details: for Increase of moisture content: 10 days vs Day 0
Description: The samples were tested for character, relevant substances, moisture content, XRPD pattern, etc. […] The samples were tested for relevant substances, content, character, moisture content, XRPD pattern, etc. During the study, the uncovered experimental samples were kept in cultured dishes in the air. […] During the study, the uncovered experimental samples were kept in cultured dishes in the air. […] With respect to relevant substances, in accordance with High Performance Liquid Chromatography in Appendix V D in Pharmacopoeia of the People's Republic of China (2010), the samples were determined by area normalization method. Instrument: High Performance Liquid Chromatographic Instrument (Agilent 1200/1260 series) Chromatographic column: chromatographic column using octylsilane chemically bonded silica as filler (HC-C8, 4.6×250 mm, 5 μm) Column temperature: 30° C. Detection wavelength: 230 nm Mobile phase: mobile phase consisting of 0.03 mol/L diammonium hydrogen phosphate/0.03 mol/L sodium perchlorate solution-acetonitrile, and reversed-phase gradient elution was employed. Flow rate: 1.0 mL/min Injection volume: 10 μL Method for determining moisture content: the moisture content was determined in accordance with First Method for Determining Moisture Content B (Coulometric Titration) in Appendix VIII M in Pharmacopoeia of the People's Republic of China (2010).

[4] = 10 days, 40° C./RH75% uncovered

C=CC(=O)Nc1cc2c(Nc3ccc(F)c(Cl)c3)ncnc2cc1OCC1CC2(CCN(C)CC2)C1 [Amorphous form, N-(4-((3-chloro-4-fluorophenyl)amino)-7-((7-methyl-7-azaspiro[3.5]nonan-2-yl)methoxy)quinazolin-6-yl)acrylamide]
Cmax and exposure amount (AUC) compared with Crystal form I, II and III [1]: significantly lower
In vivo half-life compared with Crystal form I, II and III [1]: shorter
AUC(0-inf) ([1]; male, SD, rat, plasma, po, suspension in water): 1150 ng·h/mL
AUC0-t ([1]; male, SD, rat, plasma, po, suspension in water, read-out: AUC0-t): 1140 ng·h/mL
Cmax ([1]; male, SD, rat, plasma, po, suspension in water, read-out: Cmax (maximum blood concentration)): 105 ng/mL
half-life ([1]; male, SD, rat, plasma, po, suspension in water, read-out: T1/2 (drug elimination half-life) (converted)): 3.08 h
Tmax ([1]; male, SD, rat, plasma, po, suspension in water, read-out: Tmax (time to maximum blood concentration)): 4 h
Total relevant substances ([2]; 0 day): 1.1%
Change in total relevant substances (conclusion) [2]: rapid increase in total relevant substances
Increase of total relevant substances ([2]; 5 days vs Day 0): 1.3%
Increase of total relevant substances ([2]; 10 days vs Day 0): 2.1%
Total relevant substances ([2]; 60° C. uncovered-5 days): 2.4%
Total relevant substances ([2]; 60° C. uncovered-10 days): 3.2%

C=CC(=O)Nc1cc2c(Nc3ccc(F)c(Cl)c3)ncnc2cc1OCC1CC2(CCN(C)CC2)C1 [Crystal form I, N-(4-((3-chloro-4-fluorophenyl)amino)-7-((7-methyl-7-azaspiro[3.5]nonan-2-yl)methoxy)quinazolin-6-yl)acrylamide]
Pharmacokinetic properties (conclusion) [1]: good pharmacokinetic properties
AUC0-t ([1]; suspension in water): 1404 ng·h/mL
AUCinf ([1]; suspension in water): 1414 ng·h/mL
Cmax (maximum blood concentration) ([1]; suspension in water): 134 ng/mL
T1/2 (drug elimination half-life) ([1]; suspension in water): 3.16 h
Tmax (time to maximum blood concentration) ([1]; suspension in water): 4 h
Character ([3]; 0 day): light yellow
Crystal form ([3]; 0 day): crystal-
Moisture content ([3]; 0 day): 5.0%
Relevant substance ([3]; 0 day): 0.78%
Change in impurities ([3]; 60° C.-uncovered, UV light, 10 days): increased to some extent
Character ([3]; 5 days, 40° C./RH75% covered): light yellow
Crystal form ([3]; 5 days, 40° C./RH75% covered): the same
Moisture content ([3]; 5 days, 40° C./RH75% covered): 5.1%
Relevant substance ([3]; 5 days, 40° C./RH75% covered): 0.74%
Character ([3]; 5 days, 40° C./RH75% uncovered): light yellow
Crystal form ([3]; 5 days, 40° C./RH75% uncovered): the same
Moisture content ([3]; 5 days, 40° C./RH75% uncovered): 5.4%
Relevant substance ([3]; 5 days, 40° C./RH75% uncovered): 0.76%
Character ([3]; 5 days, 60° C. covered): light yellow
Crystal form ([3]; 5 days, 60° C. covered): the same
Moisture content ([3]; 5 days, 60° C. covered): 5.0%
Relevant substance ([3]; 5 days, 60° C. covered): 0.75%
Character ([3]; 5 days, 60° C. uncovered): light yellow
Crystal form ([3]; 5 days, 60° C. uncovered): the same
Moisture content ([3]; 5 days, 60° C. uncovered): 4.9%
Relevant substance ([3]; 5 days, 60° C. uncovered): 1.3%
Character ([3]; 5 days, RH-75%): light yellow
Crystal form ([3]; 5 days, RH-75%): the same
Moisture content ([3]; 5 days, RH-75%): 5.5%
Relevant substance ([3]; 5 days, RH-75%): 0.78%
Character ([3]; 5 days, RH-92.5%): light yellow
Crystal form ([3]; 5 days, RH-92.5%): the same
Moisture content ([3]; 5 days, RH-92.5%): 5.5%
Relevant substance ([3]; 5 days, RH-92.5%): 0.78%
Character ([3]; 5 days, visible light): light yellow
Crystal form ([3]; 5 days, visible light): the same
Moisture content ([3]; 5 days, visible light): 5.1%
Relevant substance ([3]; 5 days, visible light): 0.74%
Character ([3]; 10 days, 40° C./RH75% covered): light yellow
Crystal form ([3]; 10 days, 40° C./RH75% covered): the same
Moisture content ([3]; 10 days, 40° C./RH75% covered): 4.9%
Relevant substance ([3]; 10 days, 40° C./RH75% covered): 0.73%
Character [3, 4]: light yellow
Crystal form [3, 4]: the same
Moisture content [3, 4]: 5.2%
Relevant substance [3, 4]: 0.79%
Character ([3]; 10 days, 60° C. covered): light yellow
Crystal form ([3]; 10 days, 60° C. covered): the same
Moisture content ([3]; 10 days, 60° C. covered): 4.8%
Relevant substance ([3]; 10 days, 60° C. covered): 0.78%
Character ([3]; 10 days, 60° C. uncovered): light yellow
Crystal form ([3]; 10 days, 60° C. uncovered): the same
Moisture content ([3]; 10 days, 60° C. uncovered): 4.6%
Relevant substance ([3]; 10 days, 60° C. uncovered): 1.4%
Character ([3]; 10 days, RH-75%): light yellow
Crystal form ([3]; 10 days, RH-75%): the same
Moisture content ([3]; 10 days, RH-75%): 5.7%
Relevant substance ([3]; 10 days, RH-75%): 0.70%
Character ([3]; 10 days, RH-92.5%): light yellow
Crystal form ([3]; 10 days, RH-92.5%): the same
Moisture content ([3]; 10 days, RH-92.5%): 5.8%
Relevant substance ([3]; 10 days, RH-92.5%): 0.79%
Character ([3]; 10 days, UV light): light yellow
Crystal form ([3]; 10 days, UV light): the same
Moisture content ([3]; 10 days, UV light): 5.2%
Relevant substance ([3]; 10 days, UV light): 0.89%
Increase of moisture content ([3]; high moisture RH-75%): 0.7%
Increase of moisture content ([3]; high moisture RH-92.5%): 0.8%
Stability of the samples (conclusion) ([3]; influencing factor conditions (high temperature, high moisture, light), 10 days): relatively stable
Total relevant substances ([2]; 0 day): 0.23%
Change in total relevant substances (conclusion) [2]: little increase in total relevant substances
Total relevant substances ([2]; 60° C. uncovered-5 days): 0.48%
Total relevant substances ([2]; 60° C. uncovered-10 days): 0.47%
